From patent US5914244A, “UL97 fusion proteins and methods of use” (priority 1997, dated 1999) come the findings set out here.

For orientation: Km means the concentration of substrate that gives half-maximal velocity.

The target in experiment [1] is T1, GST-UL97 fusion protein (glutathione-S-transferase fused to wild-type UL97 protein kinase of CMV strain AD169) (Human cytomegalovirus, UniProt P16788).
T1 construct: degradation products of the full length GST-UL97 fusion proteins; made in house; host or cells: Spodoptera frugiperda Sf21 cells infected with recombinant baculovirus BVGSTUL97
T1 sequence (P16788 whole entry, the tested form may be a part): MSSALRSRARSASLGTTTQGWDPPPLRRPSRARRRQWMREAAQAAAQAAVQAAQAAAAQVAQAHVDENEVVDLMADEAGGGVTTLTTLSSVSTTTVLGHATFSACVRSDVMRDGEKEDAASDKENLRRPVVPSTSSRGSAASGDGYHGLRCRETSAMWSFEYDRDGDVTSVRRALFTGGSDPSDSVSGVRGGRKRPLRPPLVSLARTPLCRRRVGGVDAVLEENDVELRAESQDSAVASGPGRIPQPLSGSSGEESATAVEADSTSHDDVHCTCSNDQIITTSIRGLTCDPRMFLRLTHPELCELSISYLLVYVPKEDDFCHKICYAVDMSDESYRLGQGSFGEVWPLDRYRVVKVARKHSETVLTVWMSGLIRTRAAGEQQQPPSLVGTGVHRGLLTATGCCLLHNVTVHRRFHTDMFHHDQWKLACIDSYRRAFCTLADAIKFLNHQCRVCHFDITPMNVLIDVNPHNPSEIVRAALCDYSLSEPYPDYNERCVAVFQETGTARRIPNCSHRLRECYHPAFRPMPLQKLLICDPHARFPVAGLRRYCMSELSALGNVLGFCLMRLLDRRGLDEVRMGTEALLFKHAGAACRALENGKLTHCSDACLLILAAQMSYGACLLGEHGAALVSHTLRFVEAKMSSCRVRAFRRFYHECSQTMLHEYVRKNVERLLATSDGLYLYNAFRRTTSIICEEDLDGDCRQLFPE
In words: biochemical. Particulars: for inhibition at 10 µM: read-out: reduction / inhibition of histone phosphorylation. It is filed as biochemical. The protocol:
(§1) Protein samples were added to 20 μl of reaction buffer containing 50 mM Tris HCl pH 9.0, 10 mM MgCl2, 5 μM ATP, 2 mM DTT, 1 M NaCl and 5 μCi γ^32 P-ATP (unless otherwise stated). After incubation at 37° C. for 30 min (unless otherwise stated), the reactions were terminated by addition of 20 μl of 2× Laemmli sample buffer to the sample and boiling for 3 min. Phosphorylated proteins were resolved by electrophoresis on 10% SDS-PAGE gels and detected by autoradiography. In order to quantitate the level of phosphorylation, the region of the gel corresponding to the labelled protein was excised and the Cerenkov radioactivity was counted. For assay of extracts of insect cells infected with BVUL97 and related recombinant viruses, 2×10^7 infected or mock-infected cells were broken by sonication in 1 ml of ice-cold lysis buffer B (50 mM Tris-HCl pH 7.6, 100 mM NaCl, 5 mM MgCl2, 0.1% NP-40, 10% glycerol, […] and 1 mM PMSF). Insoluble material was removed by centrifugation at 12,000×g for 5 minutes.
Exogenous UL97 substrates identified in the substrate assay are used to detect agents which affect UL97 protein kinase activity. […] In a typical reaction, 0.8 μg/μl histone was dissolved in 20 μl reaction buffer, and the reaction was initiated by addition of 1.9 ng/μl GST-UL97. Following a 30 min incubation at 37° C., the reaction was terminated by the addition of 2× Laemmli sample buffer to the sample and boiling for 3 min. Proteins were separated on 15% SDS-PAGE gels, and phosphorylation was detected by autoradiography.
In this assay, an agent which may be an inhibitor or an activator of UL97 is added to the phosphorylation reaction, and the reaction is allowed to proceed. The amount of phosphorylation is then measured, to see if the agent increases or decreases UL97-mediated histone phosphorylation.

For experiment [2], the target named is T1, GST-UL97 fusion protein (glutathione-S-transferase fused to wild-type UL97 protein kinase of CMV strain AD169). The experiment can be described thus: GST-UL97 autophosphorylation protein kinase assay (Km by Lineweaver-Burk plot). It is filed as biochemical. As for the experimental part: as §1
The Michaelis or apparent dissociation constant (Km) for GST-UL97 was determined using a Lineweaver-Burk plot. Kinase reactions (enzyme concentration, 4.7 ng/μl) were carried out in 200 μl standard assay buffer. […] Radiolabelled GST-UL97 was separated on 10% SDS-PAGE gels and quantified by Cerenkov count. […]

Read-outs that look alike come from different tables or passages of the source. Bounds are passed on as bounds.

With `Nc1ncnc2c1ncn2[C@@H]1O[C@H](COP(=O)(O)OP(=O)(O)O)[C@@H](O)[C@H]1O` [ADP], the activity at 5 µM in experiment [1] (addition at 5 μM, histone phosphorylation, none = 100) was determined as 166%. Also, the “effect on UL97 protein kinase activity (in words)” value in experiment [1] (histone phosphorylation, ADP at 5 μM) is listed as “stimulatory effect”.

As for `Nc1ncnc2c1ncn2[C@@H]1O[C@H](COP(=O)(O)OP(=O)(O)OP(=O)(O)O)[C@@H](O)[C@H]1O` [ATP], the Km in experiment [2] (optimal divalent cation concentration, enzyme 4.7 ng/μl, read-out: Km determined for ATP as substrate) is 2 ± 0.5 µM.

Consider `Nc1nc2c(ncn2[C@@H]2O[C@H](COP(=O)(O)OP(=O)(O)OP(=O)(O)O)[C@@H](O)[C@H]2O)c(=O)[nH]1` [GTP], for which the Km in experiment [2] (10 mM Mg2+, read-out: Km for GTP as a phosphate donor) amounted to 4 µM.

With `Nc1nc2c(ncn2[C@@H]2O[C@H](CO)[C@@H](O)[C@H]2O)c(=O)[nH]1` [Guanosine], the activity at 10 µM in experiment [1] amounted to 125%. Moreover, the “effect on GST-UL97 kinase activity (in words)” value in experiment [1] (histone phosphorylation, cAMP 5 μM, guanosine 10 μM (Table 2)) is “Neither cAMP nor guanosine showed an inhibitory effect”.

For the compound `O=c1c(O)c(-c2ccc(O)c(O)c2)oc2cc(O)cc(O)c12` [Quercetin], in experiment [1] (addition at 10 μM, histone phosphorylation, none = 100, read-out: Activity (%)), the activity at 10 µM worked out at 28%. For the same compound, the inhibition at 10 µM in experiment [1] (agent at 10 μM) was more than 70%.

Take `N#CC(C#N)=Cc1ccc(O)c(O)c1` [Tyrphostin 23]: in experiment [1], the activity at 10 µM was found to be 27% and the inhibition at 10 µM stood at 73%.

As to `NCCCNCCCCNCCCN` [spermine], in experiment [1], the activity at 100 µM amounted to 163%. The “effect on UL97-mediated phosphorylation of histone (in words)” value in experiment [1] (0.1 mM spermine) is “enhanced”.
